Measured values published in patent US20210353652A1, “TUMOR MICROENVIRONMENT-ACTIVATED DRUG-BINDER CONJUGATES, AND USES RELATED THERETO” (Trustees of Tufts College, priority 2018, published 2021).
One block for each molecule: values may come before it.

Key:
[1] = test system: humanized PD-L1 MC38 tumour cell line; test: Humanised PD-L1 MC38 syngeneic model of colorectal cancer; format: in vivo; conditions: VbP 0.02 mg/mouse per os added to AVA04-251 Fc, compared to the monotherapy
Procedure: Mice (n=8/group, C57BL/6) were inoculated subcutaneously in the right flank region with a humanized PD-L1 MC38 tumour cell line (in which the mouse PD-L1 extracellular domain was replaced by the equivalent human domain; CrownBio Inc). AVA04-251 Fc and associated control (SQTgly Fc) were injected via the IP route once tumours were >80 mm^3. Treatments were administered twice a week for 3 weeks at a dose of 10 mg/kg (AVA04-251 Fc and its control, SQTgly Fc). VbP (Tufts University) was administered 5 times a week (with 2 days off) at 0.02 mg/mouse per os. Overall, tumour growth inhibition was shown for both treatments (FIG. 17).
Seventy (70) days after the inoculation of the tumour, three (3) mice from the group treated with AVA04-251 Fc and VbP were inoculated a second time with the huMC38 cell line (a control group was inoculated at the same time) to assess if the immune system developed a memory response, preventing subsequent tumor growth.

[2] = test system: MV4-11 AML cells; test: MV4-11 AML model in NOD-SCID Il2rg-/- mice; format: in vivo, mouse; conditions: intraperitoneal once a day, 5 days on, 2 days off
From the text: One million MV4-11 cells injected into the tail vein of 10-week-old female NOD-SCID Il2rg−/−mice.

[3] = Acute toxicity study in Sprague Dawley rats; format: in vivo, rat; conditions: SD rats, subcutaneous
Procedure: The comparative in vivo safety of a representative linker-VbP pro-drug administered subcutaneously at a dose equivalent to 10-fold the maximum tolerated dose (MTD) of VbP was established in Sprague Dawley (SD) rats, i.e., 10 times the dose of VbP that […] of the SD rats.
Prior to administration, MAL-activated 6323 (PEGs-linker-VbP pro-drug) was conjugated to L-cysteine in order to inactivate the MAL moiety. L-cysteine (5 mg; Sigma) was dissolved in 1 mL of MAL-activated 6323 (4.8 mM in 50 mM MES, 150 mM NaCl, pH 6) to achieve an approximate stoichiometry of 10:1 L-cysteine:6323. The resulting solution was incubated at room temperature for 2-3 hours, after which time the reaction was confirmed to have reached completion by LC-MS analysis. The resulting Cys-modified 6323 was purified by preparative RP-HPLC using a Supelco Discovery C18 column with a 2:98 acetonitrile:water (0.1% TFA) gradient over 10 minutes, and was subsequently lyophilized.
Six (6) male SD rats (Charles River) were injected subcutaneously with 1.47 mg/kg Cys-modified 6323 (equivalent to 0.25 mg VbP/kg) in sterile PBS. […] In this study, the MTD for VbP was considered to be 0.025 mg VbP/kg. At 24 hours, 5 of the 6 animals administered Cys-modified 6323 at a dose equivalent to 10-times the VbP MTD survived, indicating a safety margin for the VbP pro-drug relative VbP.

[4] = test system: AML cell lines; test: Pyroptosis in AML cell lines in vitro; format: cell-based
[5] = test system: J774A.1 cells; test: Pyroptosis (LDH release) in J774 mouse macrophage cell line; format: cell-based; conditions: 1 μM, 24 hours
Procedure: Affimer-linker-VbP pro-drugs are designed to be cleaved by FAPα to release VbP.
J774A.1 cells (mouse monocyte macrophages; ATCC) were grown in DMEM-10%-FBS in 75 cm^2 tissue culture flasks, harvested by scraping in PBS, resuspended in DMEM-1%-FBS, plated in 96-well plates (VWR) at a density of 5×10^3 cells per well, and placed in a 5% C02 incubator at 37° C. After incubation for 24 hours, serial 10-fold dilutions of VbP, unconjugated AVA04-182 Fc, linker-VbP pro-drugs (6325, 6326 and 6328), and Affimer-linker-VbP pro-drugs (AVA04-182 Fc-6325, −6326 and −6328) were added to wells with and without addition of rhFAPα (R&D Systems) at a final concentration of 25 nM. Each reaction mixture was tested in triplicate and incubated for a further 24 hours at 37° C. Lactate dehydrogenase (LDH; a marker of pyroptosis) released into culture supernatants, was measured using the CytoTox 96 Non-Radioactive Cytotoxicity Assay (Promega) according to the manufacturer's instructions. LDH concentrations were determined by absorbance (A490) measurements in a SpectraMax® M2^e microplate reader (Molecular Devices). Percent LDH release was calculated by subtracting the background release in wells containing DMEM-1%-FBS without cells and expressing the resulting values as percentages of the LDH released by the CytoTox 96 lysis reagent.

[6] = molecular target: mouse PD-L1 Fc (R&D Systems) (mouse) (UniProt Q9EP73); test: PD-1/PD-L1 competitive ELISA: antibody preincubated with mouse PD-L1 Fc, then loaded on plate-coated mouse PD-1 Fc; % inhibition
Chain of mouse PD-L1 Fc (R&D Systems) (mouse) (Q9EP73 19-238): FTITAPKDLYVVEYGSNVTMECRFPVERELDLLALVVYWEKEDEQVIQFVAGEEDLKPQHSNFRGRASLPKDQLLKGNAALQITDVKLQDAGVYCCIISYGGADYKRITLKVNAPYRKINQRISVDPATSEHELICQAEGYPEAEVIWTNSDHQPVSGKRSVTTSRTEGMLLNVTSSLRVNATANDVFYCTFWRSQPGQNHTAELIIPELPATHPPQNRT

[7] = test system: T cell response (BMDC co-cultured with allogenic CD4+ T cells); test: Mouse mixed lymphocyte reaction (MLR) assay; format: cell-based; conditions: ELISA of supernatant after 3 days of culture, in comparison to isotype control or SQTGly Fc
Procedure: A mouse mixed lymphocyte reaction (MLR) assay was performed to assess the ability of AVA04-182 Fc to modulate the T cell response. In this MLR assay, BMDC (bone marrow dendritic cells) were generated from the bone marrow of one (1) C57BL/6 mouse, cultured for seven (7) days in the presence of GM-CSF. Cells were then co-cultured with allogenic CD4+ T cells isolated from the spleen of a Balb/c mouse using negative selection. The MLR assay was performed in the presence or absence of the test products (AVA04-182 Fc, SQTgly Fc [SEQ ID NO: 120; Affimer Fc fusion without PD-L1 targeting], Avelumab and its isotype control, HuIgG1) and controls (anti-mouse PD-L1 clone 10F9.G2 and its isotype control, rat IgG2b). Test products were evaluated at three concentrations (700, 70 and 7 nM) and the controls at one concentration (70 nM). After 3 days of culture, cell culture supernatant was harvested and the secretion of interferon γ (IFNγ) and interleukin-2 (IL-2) was evaluated using ELISA. The anti-mouse PD-L1 and Avelumab induced an increase in IL-2 (data not shown) and IFNγ secretion, in comparison to their isotype controls (FIG. 4). Similarly, AVA04-182 Fc treatment led to an increase in IL-2 (data not shown) and IFNγ secretion at all concentrations tested, in comparison to SQTGly Fc (FIG. 4).

[8] = molecular target: T1, human PD-L1 Fc (R&D Systems) chimeric protein (human, UniProt Q9NZQ7 19-239); test: binding ELISA on plate-coated human PD-L1 Fc, detection with biotinylated anti-cystatin A and streptavidin-HRP; the table gives no unit, nM is the x axis of the curve
T1 construct: Bought reagent; also called human PD-L1 Fe; not shown: Fc part of the bought R&D Systems chimera
T1 sequence (Q9NZQ7 19-239, change not shown): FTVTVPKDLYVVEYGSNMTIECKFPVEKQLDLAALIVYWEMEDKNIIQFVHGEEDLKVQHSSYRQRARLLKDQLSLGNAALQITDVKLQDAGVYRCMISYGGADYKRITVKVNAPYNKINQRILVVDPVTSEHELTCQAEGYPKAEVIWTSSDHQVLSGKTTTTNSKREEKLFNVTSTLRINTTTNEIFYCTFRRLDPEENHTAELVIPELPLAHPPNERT

Molecule: CC(C)[C@H](N)C(=O)N1CCC[C@H]1B(O)O [VbP, Val-boroPro]
Escape of tumour growth at Day 13 [1]: none of the mice showed escape of tumour growth
Efficacy against MV4-11 AML cells in vivo [2]: demonstrates efficacy
MTD [3]: 0.025 mg VbP/kg
Induction of pyroptosis [4]: induces pyroptosis
LDH release in the presence of rhFAPα ([5]; 25 nM rhFAPα): significant LDH release
LDH release in the absence of rhFAPα ([5]; no rhFAPα): significant LDH release

Molecule: Anti muPD-L1 (10F9.G2) (antibody)
IC50 [6]: 0.692 nM

Molecule: Avelumab: anti-PD-L1 antibody
IFNγ secretion [7]: increase
IL-2 secretion ([7]; data not shown): increase

Second part, the molecule after the results:

EC50 [8]: 0.0904 nM
B1: AVA04-251 BH cys-800 (designed binder)
chain: MIPRGLSEAKPATPEIQEIVDKVKPQLEEKTNETYGKLEAVQYKTQVLAREGRQDWVLSTNYYIKVRAGDNKYMHLKVFNGPWVPFPHQQLADRVLTGYQVDKNKDDELTGFAEAAAKEAAAKEAAAKEAAAKEAAAKEAAAKMIPRGLSEAKPATPEIQEIVDKVKPQLEEKTNETYGKLEAVQYKTQVLAREGRQDWVLSTNYYIKVRAGDNKYMHLKVFNGPWVPFPHQQLADRVLTGYQVDKNKDDELTGFLQAAAHHHHHHC
modifications: IRDye 800CW conjugated with maleimide chemistry (to the single Cys residue)
notes: Dye conjugate of m3; also called conjugated Affimer

EC50 [8]: 0.0355 nM
B2: AVA04-251 BH cys (designed binder)
chain: MIPRGLSEAKPATPEIQEIVDKVKPQLEEKTNETYGKLEAVQYKTQVLAREGRQDWVLSTNYYIKVRAGDNKYMHLKVFNGPWVPFPHQQLADRVLTGYQVDKNKDDELTGFAEAAAKEAAAKEAAAKEAAAKEAAAKEAAAKMIPRGLSEAKPATPEIQEIVDKVKPQLEEKTNETYGKLEAVQYKTQVLAREGRQDWVLSTNYYIKVRAGDNKYMHLKVFNGPWVPFPHQQLADRVLTGYQVDKNKDDELTGFLQAAAHHHHHHC
notes: Produced in E. coli BL21; also called parental molecule
